# Measured values taken from ChEMBL document CHEMBL1201862, “PubChem BioAssay data set” (2004).
# The source made the active and inactive calls.
# What was measured:
# [1] = target: 1-phosphatidylinositol 4,5-bisphosphate phosphodiesterase beta-3 (Homo sapiens, UniProt Q01970); assay: Fluorescence-based biochemical high throughput dose response assay to identify inhibitors of phospholipase C isozymes (PLC-B3).
# [2] = target: 1-phosphatidylinositol 4,5-bisphosphate phosphodiesterase gamma-1 (Homo sapiens, UniProt P19174); assay: Counterscreen for inhibitors of phospholipase C isozymes (PLC-B3): Fluorescence-based biochemical high throughput dose response assay to identify inhibitors of phospholipase C isozymes (PLC-gamma1).
# Chain of 1-phosphatidylinositol 4,5-bisphosphate phosphodiesterase gamma-1 (P19174 whole entry): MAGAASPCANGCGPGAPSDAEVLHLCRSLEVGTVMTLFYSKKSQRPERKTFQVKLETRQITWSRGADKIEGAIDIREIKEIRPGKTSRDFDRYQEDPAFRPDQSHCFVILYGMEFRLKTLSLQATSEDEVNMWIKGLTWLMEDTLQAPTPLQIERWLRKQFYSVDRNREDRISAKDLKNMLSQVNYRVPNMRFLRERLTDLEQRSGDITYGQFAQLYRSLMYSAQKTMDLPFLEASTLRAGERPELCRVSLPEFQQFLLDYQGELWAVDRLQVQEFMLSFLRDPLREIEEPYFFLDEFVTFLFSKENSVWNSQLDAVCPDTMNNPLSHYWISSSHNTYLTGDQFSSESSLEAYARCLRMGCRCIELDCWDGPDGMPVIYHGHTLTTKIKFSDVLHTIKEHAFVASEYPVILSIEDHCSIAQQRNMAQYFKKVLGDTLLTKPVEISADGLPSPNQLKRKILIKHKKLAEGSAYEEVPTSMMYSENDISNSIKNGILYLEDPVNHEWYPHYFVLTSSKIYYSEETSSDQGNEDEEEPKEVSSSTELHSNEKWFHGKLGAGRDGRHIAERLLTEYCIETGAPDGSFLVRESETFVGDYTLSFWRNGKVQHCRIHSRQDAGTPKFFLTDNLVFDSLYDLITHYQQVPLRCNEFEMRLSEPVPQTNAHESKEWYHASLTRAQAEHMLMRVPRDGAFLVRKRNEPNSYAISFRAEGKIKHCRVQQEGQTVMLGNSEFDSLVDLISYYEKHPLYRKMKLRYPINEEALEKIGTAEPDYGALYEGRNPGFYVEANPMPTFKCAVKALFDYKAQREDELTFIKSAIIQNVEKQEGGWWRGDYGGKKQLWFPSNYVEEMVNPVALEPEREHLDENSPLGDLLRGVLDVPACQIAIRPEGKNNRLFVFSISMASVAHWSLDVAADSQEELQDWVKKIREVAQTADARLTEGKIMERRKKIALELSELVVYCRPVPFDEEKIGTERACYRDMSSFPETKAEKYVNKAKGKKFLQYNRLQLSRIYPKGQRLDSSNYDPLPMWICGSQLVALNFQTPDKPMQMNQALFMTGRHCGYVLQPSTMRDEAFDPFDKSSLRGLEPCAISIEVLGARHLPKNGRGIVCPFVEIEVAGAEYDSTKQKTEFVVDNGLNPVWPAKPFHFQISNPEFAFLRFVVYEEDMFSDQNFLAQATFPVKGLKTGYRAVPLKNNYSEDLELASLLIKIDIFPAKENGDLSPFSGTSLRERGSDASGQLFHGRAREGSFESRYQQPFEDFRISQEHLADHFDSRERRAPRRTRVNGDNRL
# [3] = cytotoxicity toward HCT116 cells – cell-based, CellTiter-Glo luminescence, IC50, dose response (AID 1117332); type: functional; settings: HCT-116
# [4] = cytotoxicity toward HT-29 cells – cell-based, CellTiter-Glo luminescence, IC50, dose response (AID 1117330); type: functional
# [5] = SNU-C1 cell viability reduction, dose response, CellTiter-Glo luminescence (AID 1117323); type: functional, cell-based
# [6] = cytotoxicity toward Colo320 cells – cell-based, CellTiter-Glo luminescence, IC50, dose response (AID 1117334); type: functional; settings: COLO 320
# [7] = Reduced DLD-1 viability, concentration-response, CellTiter-Glo luminescence (AID 1117352); type: functional
# [8] = CellTiter-Glo luminescence survival assay, SW480 colon tumor line, concentration-response curve, half-maximal inhibitory concentration (AID 1117338); type: functional
# [9] = RKO cell viability reduction, dose response, CellTiter-Glo luminescence (AID 1117322); type: functional
# [10] = Luminescence-based cell-based high throughput dose response assay to identify activators of the DAF-12 from the parasite S. stercoralis (ssDAF-12).; type: functional
# [11] = target: T1, Oxysterols receptor LXR-beta (Homo sapiens, UniProt P55055); assay: LXR agonists, Gal4 luciferase reporter, dose response, counter-screen for ssDAF-12 agonist project, cell-based, luminescence, HEK293, S. stercoralis campaign (AID 720737); type: functional; settings: read-out: IC50 (the source's name)
# T1 sequence (P55055 whole entry): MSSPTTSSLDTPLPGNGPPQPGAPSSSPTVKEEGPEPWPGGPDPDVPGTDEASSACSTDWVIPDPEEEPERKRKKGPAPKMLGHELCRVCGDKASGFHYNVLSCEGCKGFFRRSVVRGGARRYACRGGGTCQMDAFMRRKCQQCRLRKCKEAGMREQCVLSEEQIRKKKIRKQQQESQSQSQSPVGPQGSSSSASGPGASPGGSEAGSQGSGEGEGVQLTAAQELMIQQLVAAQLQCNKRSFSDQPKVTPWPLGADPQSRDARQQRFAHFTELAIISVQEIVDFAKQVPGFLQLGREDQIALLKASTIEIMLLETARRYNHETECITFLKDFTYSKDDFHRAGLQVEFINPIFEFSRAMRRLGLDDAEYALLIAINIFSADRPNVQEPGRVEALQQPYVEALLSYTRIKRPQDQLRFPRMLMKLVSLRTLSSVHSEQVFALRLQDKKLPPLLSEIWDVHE
# [12] = Dd2 parasite growth inhibition in erythrocytes – SYBR Green, dry powder samples, set 9, dose response (AID 1159568); type: functional, cell-based
# [13] = toxicity to human hepatoma HepG2 cells – cell-based, cherry-picked samples, cytotoxicity control, dose response (AID 1159577); type: functional
# [14] = P. falciparum Dd2 growth inhibitors, dose response, SYBR Green, cherry-picked samples (AID 1159567); type: functional, cell-based
# [15] = growth inhibition of yeast DHODH-expressing 3D7 parasites – SYBR Green, dry powder samples, dose response (AID 1159570); type: functional, cell-based;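 further: parasite growth measured after 72 hours of compound exposure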
# [16] = growth inhibition of PfATP4-mutant resistant parasites – NITD609-resistant line, SYBR Green, dry powder, dose response (AID 1159571); type: functional, cell-based;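 further: parasites synchronized at ring stage by sorbitol before testing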
# [17] = Dd2 malaria parasite growth inhibition potency – SYBR Green, dry powder samples, dose response (AID 1159566); type: functional, cell-based;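 further: potency for growth inhibition with lower SYBR green DNA signal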
# [18] = blockers of bursicon-stimulated LGR2 cAMP reporter – cell-based, HEK293, CRE-luciferase reporter, cherry pick, set 2, dose response (AID 743343); type: functional;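 further: transfected cells were stimulated with diluted bursicon conditioned medium after compound addition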
# [19] = A549 cell cytotoxicity, dose response, cytotoxicity control, plate reader, cherry-pick, antagonist series (AID 743412); type: functional, cell-based
# [20] = non-specific 3'UTR reporter inhibition in Clone20-Shn3RL – cell-based, Renilla luciferase, cherry-picked, counter-screen for Shn3 inhibitor project, dose response (AID 624133); type: functional
# [21] = reduction of Shn3 3'UTR-driven luciferase in osteoblasts – cell-based, Clone20 osteoblasts, firefly luciferase, cherry-picked, dose response (AID 624132); type: functional;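 further: firefly luciferase luminescence from reporter carrying the Shn3 3'UTR in osteoblasts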
# [22] = target: COUP transcription factor 2 (Homo sapiens, UniProt P24468); assay: Luminescence-based cell-based high throughput dose response assay to identify inhibitors of COUP-TFII (NR2F2).; type: functional;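 further: HEK293 cells transiently cotransfected with COUP-TFII expression vector and reporter; luciferase reporter luminescence driven by COUP-TFII from the pX2-168 reporter plasmid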
# Chain of COUP transcription factor 2 (P24468 whole entry): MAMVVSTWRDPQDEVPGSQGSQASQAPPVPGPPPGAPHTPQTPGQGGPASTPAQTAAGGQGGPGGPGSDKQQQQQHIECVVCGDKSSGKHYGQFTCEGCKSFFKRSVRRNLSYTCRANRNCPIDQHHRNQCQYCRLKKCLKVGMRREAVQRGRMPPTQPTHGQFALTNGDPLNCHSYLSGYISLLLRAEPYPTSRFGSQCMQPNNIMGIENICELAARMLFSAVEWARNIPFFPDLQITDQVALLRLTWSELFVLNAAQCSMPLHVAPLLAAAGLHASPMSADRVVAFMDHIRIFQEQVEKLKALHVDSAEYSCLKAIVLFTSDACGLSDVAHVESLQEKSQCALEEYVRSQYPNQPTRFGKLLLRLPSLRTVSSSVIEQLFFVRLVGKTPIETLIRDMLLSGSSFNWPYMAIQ
# [23] = toxicity toward HepG2 liver cells – cell-based, plate reader, cherry-pick, antagonist series, cytotoxicity control, dose response (AID 743416); type: functional
# [24] = viability loss in HEK293 cells – cell-based, plate reader, cherry-picked samples, cytotoxicity control, dose response (AID 743446); type: functional
# [25] = blockade of melanocortin 4 receptor signaling – cell-based, plate reader, cherry pick, counter-screen for LGR2 antagonist project, dose response (AID 743444); type: functional;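 further: transfected HEK 293 cells stimulated with alpha-MSH peptide; potency of inhibitors of the alpha-MSH evoked signal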
# Genome polyprotein = Genome polyprotein (dengue virus type 2, UniProt P29990); assay: flavivirus cap methylation enzyme inhibition – biochemical, confirmation dose response, primary screen (AID 588689); type: functional
# Chain of Genome polyprotein (P29990 2492-3391 limits assumed): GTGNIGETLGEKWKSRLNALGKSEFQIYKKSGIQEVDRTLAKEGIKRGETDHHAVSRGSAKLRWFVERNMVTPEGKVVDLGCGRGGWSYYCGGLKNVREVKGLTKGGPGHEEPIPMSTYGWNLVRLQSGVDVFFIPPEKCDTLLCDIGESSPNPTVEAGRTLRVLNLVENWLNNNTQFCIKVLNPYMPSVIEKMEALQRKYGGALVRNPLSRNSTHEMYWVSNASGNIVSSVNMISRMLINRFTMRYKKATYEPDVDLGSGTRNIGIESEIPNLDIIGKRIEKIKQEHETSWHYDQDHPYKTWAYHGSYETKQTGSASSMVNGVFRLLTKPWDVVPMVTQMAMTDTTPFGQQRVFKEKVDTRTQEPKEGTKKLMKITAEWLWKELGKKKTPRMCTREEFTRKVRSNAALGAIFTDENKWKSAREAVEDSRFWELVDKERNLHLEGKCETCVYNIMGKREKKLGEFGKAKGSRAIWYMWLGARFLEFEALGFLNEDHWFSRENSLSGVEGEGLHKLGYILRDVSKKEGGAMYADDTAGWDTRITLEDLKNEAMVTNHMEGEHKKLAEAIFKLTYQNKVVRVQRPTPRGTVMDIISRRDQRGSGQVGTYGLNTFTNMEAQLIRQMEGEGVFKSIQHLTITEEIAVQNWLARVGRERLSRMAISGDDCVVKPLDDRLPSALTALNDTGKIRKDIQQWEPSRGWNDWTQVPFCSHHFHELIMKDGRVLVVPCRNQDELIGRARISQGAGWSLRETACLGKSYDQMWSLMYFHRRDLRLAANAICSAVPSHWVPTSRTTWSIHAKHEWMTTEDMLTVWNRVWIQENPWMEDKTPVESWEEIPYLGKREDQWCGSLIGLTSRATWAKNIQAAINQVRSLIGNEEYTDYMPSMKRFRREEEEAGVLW
# [26] = toxicity toward immortalized ovarian surface epithelium – cell-based, plate reader, dry powder samples, cytotoxicity control for PAX8 inhibitor project, dose response (AID 743045); type: functional
# [27] = OVCAR8 cell viability loss – plate reader, dry powder samples, PAX8 project, dose response (AID 743197); type: functional, cell-based; settings: OVCAR-8
# [28] = IGROV1 cell killing – plate reader, dry powder samples, PAX8 inhibitor project, dose response (AID 743043); type: functional, cell-based; settings: IGROV-1
# [29] = OVCAR-3 cell viability loss – plate reader, dry powder samples, PAX8 inhibitor project, dose response (AID 743044); type: functional, cell-based
# Paired box protein Pax-8 = Paired box protein Pax-8 (Homo sapiens, UniProt Q06710); assay: PAX8 transcriptional activity inhibition in RMG-I – RMG-I cells, luciferase, cherry-pick, dose response (AID 687027); type: functional, cell-based;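 further: luciferase reporter driven by Pax8 target thyroperoxidase promoter measured by SteadyGlo luminescence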
# Chain of Paired box protein Pax-8 (Q06710 whole entry): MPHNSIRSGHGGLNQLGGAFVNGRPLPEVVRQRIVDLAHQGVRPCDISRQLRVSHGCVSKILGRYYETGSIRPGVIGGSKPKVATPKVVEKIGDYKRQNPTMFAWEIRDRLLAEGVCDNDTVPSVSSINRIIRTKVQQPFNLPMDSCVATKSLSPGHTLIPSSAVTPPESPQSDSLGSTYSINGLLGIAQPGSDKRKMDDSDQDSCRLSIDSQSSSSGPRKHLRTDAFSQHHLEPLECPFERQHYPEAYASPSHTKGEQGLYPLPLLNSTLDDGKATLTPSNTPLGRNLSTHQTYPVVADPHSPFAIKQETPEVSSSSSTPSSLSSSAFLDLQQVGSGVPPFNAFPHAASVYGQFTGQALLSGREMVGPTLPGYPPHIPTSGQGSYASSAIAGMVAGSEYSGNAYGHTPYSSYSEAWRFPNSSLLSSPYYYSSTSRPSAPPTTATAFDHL
# [30] = MITF: Counter assay: A375 proliferation Measured in Cell-Based System Using Plate Reader - 2084-03_Inhibitor_Dose_DryPowder_Activity_Set8.; type: functional; settings: A-375
# [31] = inhibitors of TRPM1-promoter reporter in SK-MEL-5 – cell-based, luciferase, dry powder, set 8, MITF inhibitor project, dose response (AID 624430); type: functional
# [32] = MITF Orthogonal Assay: SK-MEL-5 CTG Assay Measured in Cell-Based System Using Plate Reader - 2084-02_Inhibitor_Dose_DryPowder_Activity_Set7.; type: functional
# [33] = A2780 cell killing – plate reader, dry powder samples, cytotoxicity control, dose response (AID 743046); type: functional, cell-based
# [34] = target: T2, Rac GTPase-activating protein 1 (Homo sapiens, UniProt Q9H0H5); assay: blockers of MgcRacGAP-driven Rac1 GTP hydrolysis – biochemical, ADP Hunter fluorescence, primary and confirmatory, confirmation (AID 624330); type: functional
# T2 sequence (Q9H0H5 whole entry): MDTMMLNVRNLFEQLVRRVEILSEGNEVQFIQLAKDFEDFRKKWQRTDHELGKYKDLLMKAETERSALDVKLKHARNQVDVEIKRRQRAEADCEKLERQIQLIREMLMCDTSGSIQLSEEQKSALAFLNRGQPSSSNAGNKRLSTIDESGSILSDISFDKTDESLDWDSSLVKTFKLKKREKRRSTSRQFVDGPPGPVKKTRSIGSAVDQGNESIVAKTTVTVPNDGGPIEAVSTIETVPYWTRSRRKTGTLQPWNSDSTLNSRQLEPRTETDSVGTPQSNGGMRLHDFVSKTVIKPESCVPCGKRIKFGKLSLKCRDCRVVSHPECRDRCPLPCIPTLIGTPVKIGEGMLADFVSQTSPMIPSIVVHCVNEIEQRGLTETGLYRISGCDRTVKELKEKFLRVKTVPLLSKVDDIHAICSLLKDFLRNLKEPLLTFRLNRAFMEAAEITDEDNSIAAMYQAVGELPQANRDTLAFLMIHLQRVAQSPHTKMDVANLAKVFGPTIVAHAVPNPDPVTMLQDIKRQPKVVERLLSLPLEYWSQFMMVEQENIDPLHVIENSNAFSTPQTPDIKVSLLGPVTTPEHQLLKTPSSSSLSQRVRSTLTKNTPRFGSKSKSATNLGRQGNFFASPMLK
# Protein Tat = Protein Tat (Human immunodeficiency virus type 1 group M subtype B (isolate HXB2)(HIV-1), UniProt P04608); type: functional;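 further: tat binding to TAR RNA read out by fluorescence polarization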
# Chain of Protein Tat (P04608 whole entry): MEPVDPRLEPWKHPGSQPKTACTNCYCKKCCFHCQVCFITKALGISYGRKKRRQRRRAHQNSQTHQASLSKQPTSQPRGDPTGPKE
# [35] = general mammalian cell viability loss – inhibitor set, cherry-pick, set 2, cytotoxicity control for miR-122 modulator project, dose response (AID 720697); type: functional, cell-based
# [36] = general mammalian cell viability loss – activator set, cherry-pick, cytotoxicity control for miR-122 modulator project, dose response (AID 720690); type: functional, cell-based;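 further: HEK293T human cells scored for general mammalian cytotoxicity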
# [37] = activation of miR-122 Renilla sensor silencing – cell-based, Huh7 psiCHECK-miR122, Renilla luciferase, cherry-picked, dose response (AID 651956); type: functional;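 further: huh7 hepatoma cells stably carrying a psiCHECK-2 miR-122 sensor plasmid; renilla luciferase signal reporting endogenous miR-122 activity after 48 h compound exposure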
# Chain of 1-phosphatidylinositol 4,5-bisphosphate phosphodiesterase beta-3 (Q01970 whole entry): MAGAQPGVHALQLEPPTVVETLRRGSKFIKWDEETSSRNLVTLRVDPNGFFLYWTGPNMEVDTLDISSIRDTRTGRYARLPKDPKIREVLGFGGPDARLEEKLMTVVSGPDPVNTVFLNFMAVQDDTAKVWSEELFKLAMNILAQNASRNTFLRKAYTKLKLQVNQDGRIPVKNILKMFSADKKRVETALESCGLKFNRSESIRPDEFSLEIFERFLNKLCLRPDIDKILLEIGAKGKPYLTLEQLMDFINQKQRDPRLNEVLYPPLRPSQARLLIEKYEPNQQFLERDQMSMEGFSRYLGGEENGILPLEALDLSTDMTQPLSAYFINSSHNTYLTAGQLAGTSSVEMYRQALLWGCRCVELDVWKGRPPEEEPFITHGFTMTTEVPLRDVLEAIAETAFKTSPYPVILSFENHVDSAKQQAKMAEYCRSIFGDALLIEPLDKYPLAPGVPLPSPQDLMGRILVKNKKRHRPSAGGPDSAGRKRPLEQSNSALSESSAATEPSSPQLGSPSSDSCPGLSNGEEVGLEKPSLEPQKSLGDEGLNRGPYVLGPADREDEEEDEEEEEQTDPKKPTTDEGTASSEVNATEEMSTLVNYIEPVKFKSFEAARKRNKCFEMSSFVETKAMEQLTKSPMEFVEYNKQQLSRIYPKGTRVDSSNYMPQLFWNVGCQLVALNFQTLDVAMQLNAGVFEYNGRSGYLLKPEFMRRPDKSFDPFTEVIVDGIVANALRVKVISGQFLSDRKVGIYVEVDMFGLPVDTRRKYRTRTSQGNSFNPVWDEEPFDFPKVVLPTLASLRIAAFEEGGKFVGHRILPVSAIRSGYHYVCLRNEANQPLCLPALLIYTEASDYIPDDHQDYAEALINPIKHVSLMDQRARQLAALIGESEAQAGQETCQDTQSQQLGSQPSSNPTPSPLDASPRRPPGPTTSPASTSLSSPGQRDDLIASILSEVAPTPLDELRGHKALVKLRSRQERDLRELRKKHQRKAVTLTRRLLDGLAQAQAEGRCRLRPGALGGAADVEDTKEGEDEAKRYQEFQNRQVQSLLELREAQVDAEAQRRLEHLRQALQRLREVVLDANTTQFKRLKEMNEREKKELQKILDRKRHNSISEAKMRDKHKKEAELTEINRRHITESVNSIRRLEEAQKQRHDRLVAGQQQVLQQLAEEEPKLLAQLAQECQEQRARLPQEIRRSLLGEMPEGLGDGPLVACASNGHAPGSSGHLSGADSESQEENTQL
smiles,measurement,setting,value
COC(=O)C1CCCN1C(=O)COc1ccc(Br)cc1Cl (configuration not stated),IC50,[1],> 122 µM (inactive)
same,IC50,[2],> 122 µM (inactive)
CCOC(=O)Oc1ccc(CCNC(=O)[C@H](CCSC)NC(C)=O)cc1OC(=O)OCC [DOCARPAMINE],IC50,[3],> 20 µM (inactive)
same,IC50,[4],> 20 µM (inactive)
same,IC50,[5],> 20 µM (inactive)
same,IC50,[6],> 20 µM (inactive)
same,IC50,[7],> 20 µM (inactive)
same,IC50,[8],> 20 µM (inactive)
same,IC50,[9],> 20 µM (inactive)
CC1(C)NC(=S)C(C)(C)N1N=O,IC50,[10],> 67.5 µM (inactive)
same,EC50,[11],> 67.5 µM (inactive)
CCCNC(=O)N1[C@H](C#N)[C@H](c2ccccc2-c2cccc(C)c2)[C@@H]1CO,AC50,[12],7.01 µM (active)
COc1ccc(NC(=O)N2CC(=O)N3[C@@H](CO)[C@H](c4ccc(C#CCC5CCCC5)cc4)[C@@H]3C2)cc1,AC50,[13],> 42 µM (inactive)
same,AC50,[14],3.79 µM (active)
same,AC50,[15],2.19 µM (active)
same,AC50,[16],2.84 µM (active)
same,AC50,[17],2.17 µM (active)
OC[C@H]1[C@@H](c2ccc(-c3cccnc3)cc2)[C@@H]2CN(CC3CC3)CCCCN12,AC50,[14],2.12 µM (active)
same,AC50,[15],1.9 µM (active)
same,AC50,[16],2.65 µM (active)
same,AC50,[17],1.8 µM (active)
CC[C@H]1CN2CCc3cc(OC)c(OC)cc3C2C[C@@H]1C[C@H]1NCCc2cc(OC)c(OC)cc21 (some centres not stated),AC50,[18],0.257 µM (active)
same,AC50,[19],0.0576 µM (active)
same,AC50,[20],< 0.26 µM (active)
same,AC50,[21],< 0.26 µM (active)
same,IC50,[22],0.209 µM (active)
same,AC50,[23],0.0959 µM (active)
same,AC50,[24],0.0731 µM (active)
same,AC50,[25],0.25 µM (active)
O=C(O)c1[nH]c2ccccc2c1C(c1cc(Br)ccc1O)c1c(C(=O)O)[nH]c2ccccc12,IC50,Genome polyprotein,16 µM (active)
same,AC50,cells,9.21 µM (active)
COc1ccccc1NC(=O)N1CCCCN2[C@@H](CO)[C@@H](c3ccc(-c4cccc(C)c4)cc3)[C@@H]2C1,AC50,[26],67.5 µM (active)
same,AC50,[27],68.6 µM (active)
same,AC50,[13],11.2 µM (active)
same,AC50,[14],1.43 µM (active)
same,AC50,[28],28.4 µM (active)
same,AC50,[29],31.6 µM (active)
same,AC50,Paired box protein Pax-8,13.2 µM (active)
CC(C)N1CCN(C2=C(Nc3ccc(Cl)c(Cl)c3)C(=O)c3ccccc3C2=O)CC1,AC50,[30],19.4 µM (active)
same,AC50,[31],3.21 µM (active)
same,AC50,[32],8.71 µM (active)
Fc1ccc(-c2cc(-c3cccs3)cc(-c3ccccc3)n2)cc1,IC50,[1],> 123 µM (inactive)
same,IC50,[2],> 123 µM (inactive)
COc1ccc(C(=O)Nc2ccc3ccccc3c2)c(OC)c1,IC50,[10],> 67.5 µM (inactive)
same,EC50,[11],> 67.5 µM (inactive)
Cc1c(NC(=O)c2cccnc2)c(=O)n(-c2ccccc2)n1C [NIFENAZONE],IC50,[3],> 20 µM (inactive)
same,IC50,[4],> 20 µM (inactive)
same,IC50,[5],> 20 µM (inactive)
same,IC50,[6],> 20 µM (inactive)
same,IC50,[7],> 20 µM (inactive)
same,IC50,[8],> 20 µM (inactive)
same,IC50,[9],> 20 µM (inactive)
C[C@H]1CN([C@@H](C)CO)S(=O)(=O)c2ccc(C#Cc3ccncc3)cc2O[C@@H]1CN(C)C(=O)Nc1ccc2c(c1)OCO2,AC50,[26],3.88 µM (active)
same,AC50,[33],1.49 µM (active)
same,AC50,[27],1.89 µM (active)
same,AC50,[28],1.23 µM (active)
same,AC50,[29],1.48 µM (active)
same,AC50,Paired box protein Pax-8,0.264 µM (active)
COc1ccc(N2C(=O)CC(Nc3ccc(N4CCOCC4)cc3)C2=O)c(OC)c1 (configuration not stated),IC50,[34],174 µM (active)
same,IC50,Protein Tat,12.4 µM (inconclusive)
CN1C(=O)c2cc(NC(=O)c3ccc(C(F)(F)F)cc3)ccc2OC[C@H]2O[C@@H](CC(=O)NCc3ccc4c(c3)OCO4)CC[C@H]21,AC50,[35],7.69 µM (active)
same,AC50,[36],16.2 µM (active)
same,AC50,[12],17.8 µM (active)
same,AC50,[37],10.9 µM (active)
COc1ccc(C#Cc2ccc([C@@H]3[C@H](CO)N4CCCCN(C(=O)Nc5ccc(F)cc5)C[C@@H]34)cc2)cc1,AC50,[33],13.9 µM (active)
same,AC50,[27],41.2 µM (active)
same,AC50,Paired box protein Pax-8,15.5 µM (active)
